5 molecules from US20240183860A1, “Chimeric ABC Transporters and Screening Methods” (Genentech, Inc., priority 2021, published 2024) can be followed below.

In assay [1] the target is T1, EcMsbA-chim5 (MsbA-chimera5) (Escherichia coli, UniProt P60752, D53T/D54Y/D60K/DEL268-292/DEL57-57/F265A/G55I/I169L/INS266[…]/INS66P/K49D/K58D/L171A/L263V/L51V/L52I/M159V/M67L/P68V/S164D/S62H/T59E/V63D/Y163E).
T1 construct: FLAG (N); made in house; host or cells: E. coli Rosetta 2 (DE3), pET-52b vector
Description: biochemical. Format: biochemical. The settings on record: ATPase; FIGS. 11D-E. Here is the method: (§1) The ATPase activity of MsbA was measured using a Transcreener ADP2 FP Assay (BellBrook Labs). […] The final condition for the reaction was MsbA enzyme, 50 μM ATP in 50 mM Tris pH 7.5, 10 mM MgCl2, 1% glycerol, 0.1% bovine gamma globulin, 1 mM dithiothreitol (DTT), 0.007% Brij-35 and 0.5% dimethylsulfoxide (DMSO). The following concentrations were used for each MsbA variant: 5 nM of EcMsbA, EnMsbA, KpMsbA and 80 nM PaMsbA reconstituted in amphipol, 15 nM EcMsbA and EcMsbA-chim5 in LMNG detergent, 22 nM EcMsbA and 27 nM EcMsbA-12G7 complex in aDDM detergent. The enzyme reaction was incubated for 1 hour at room temperature, then quenched by adding the Transcreener Detection Buffer. The IC50 was determined by fitting the inhibition dose-response curve with a nonlinear four-parameter inhibition model (GraphPad Prism).

In assay [2] the target is T2, E. coli MsbA (EcMsbA) (Escherichia coli, UniProt P60752).
T2 construct: FLAG (N); made in house; host or cells: E. coli (strain for the WT protein not restated)
Description: MsbA ATPase assay (Transcreener ADP2 FP). Format: biochemical. On the procedure: as §1

Assay [3] deals with T3, EcMsbA-chim5 (MsbA-chimera5) (Escherichia coli, UniProt P60752, D53T/D54Y/D60K/DEL268-292/DEL57-57/F265A/G55I/I169L/INS266IAYAGNRVIHEDMRSGALIAFIAAL/INS66P/K49D/K58D/L171A/L263V/L51V/L52I/M159V/M67L/P68V/S164D/S62H/T59E/V63D/Y163E).
T3 construct: FLAG (N); made in house; host or cells: E. coli Rosetta 2 (DE3), pET-52b vector
Description: biochemical. In kind it is biochemical. Here is the method: as §1

Assay [4] concerns WT E. coli cells with an intact outer membrane (CFT073, UPEC WT). Description: Cellular IC50 determination (BacTiter-Glo, 6 hours). In kind it is cell-based, Escherichia coli. Here is the method:
The cellular IC50's of various bacterial strains (Table 2) were determined.
200 nL aliquots of eight 2-fold dilutions of each compound were dispensed in duplicate into 384-well plates using an Echo Liquid Handler (Labcyte). Strains were grown in cation-adjusted Mueller Hinton Broth with 0.002% Tween overnight for 16 hours, washed with PBS, resuspended at OD600=1 in cation-adjusted Mueller Hinton Broth with 0.002% Tween and 10% glycerol, and frozen in […] aliquots. For each experiment, aliquots were thawed on ice and diluted 1:1000 into cation-adjusted Mueller Hinton Broth with 0.002% Tween. 10 μL cells/well were added to 384-well plates containing compound. Plates were incubated for 6 hours at 37° C., then 10 μL BacTiter-Glo reagent (Promega) was added to each well and luminescence was measured. IC50's were calculated using Genedata Screener software.

Assay [5] has as its system imp E. coli (lptD(imp4213)), E. coli MsbA. Description: Broth MIC assay. Format: cell-based, Escherichia coli. The settings on record: Table 5 prints no unit; μM. Here is the method:
Broth MICs were determined in cation-adjusted Mueller-Hinton broth with 0.002% Tween-80, as previously described (Ho et al., 2018).

Assay [6] concerns the target T4, Pseudomonas aeruginosa MsbA (PaMsbA) (Pseudomonas aeruginosa, UniProt Q9HUG8).
T4 construct: FLAG; made in house; host or cells: not restated ('similarly expressed')
T4 sequence (Q9HUG8 1-603): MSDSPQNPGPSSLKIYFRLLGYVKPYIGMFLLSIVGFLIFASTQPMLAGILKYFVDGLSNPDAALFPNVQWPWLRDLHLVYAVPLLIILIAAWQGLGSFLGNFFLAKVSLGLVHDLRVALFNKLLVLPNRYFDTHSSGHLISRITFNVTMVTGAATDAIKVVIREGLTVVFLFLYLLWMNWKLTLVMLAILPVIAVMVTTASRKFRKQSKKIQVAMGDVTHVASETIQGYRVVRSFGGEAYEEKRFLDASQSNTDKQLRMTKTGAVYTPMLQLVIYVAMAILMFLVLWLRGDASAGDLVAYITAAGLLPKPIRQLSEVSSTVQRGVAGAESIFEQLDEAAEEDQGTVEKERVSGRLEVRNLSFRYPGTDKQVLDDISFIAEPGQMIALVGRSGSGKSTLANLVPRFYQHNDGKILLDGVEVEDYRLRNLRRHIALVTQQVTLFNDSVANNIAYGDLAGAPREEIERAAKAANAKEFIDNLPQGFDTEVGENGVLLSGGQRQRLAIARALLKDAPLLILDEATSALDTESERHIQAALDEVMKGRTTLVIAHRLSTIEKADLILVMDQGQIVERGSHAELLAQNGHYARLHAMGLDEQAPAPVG
Kind of assay: MsbA ATPase assay, amphipol-reconstituted homologue. Format: biochemical. Here is the method: as §1

For assay [7], the target named is T5, Escherichia coli MsbA (wild-type) (Escherichia coli), P60752.
T5 chain: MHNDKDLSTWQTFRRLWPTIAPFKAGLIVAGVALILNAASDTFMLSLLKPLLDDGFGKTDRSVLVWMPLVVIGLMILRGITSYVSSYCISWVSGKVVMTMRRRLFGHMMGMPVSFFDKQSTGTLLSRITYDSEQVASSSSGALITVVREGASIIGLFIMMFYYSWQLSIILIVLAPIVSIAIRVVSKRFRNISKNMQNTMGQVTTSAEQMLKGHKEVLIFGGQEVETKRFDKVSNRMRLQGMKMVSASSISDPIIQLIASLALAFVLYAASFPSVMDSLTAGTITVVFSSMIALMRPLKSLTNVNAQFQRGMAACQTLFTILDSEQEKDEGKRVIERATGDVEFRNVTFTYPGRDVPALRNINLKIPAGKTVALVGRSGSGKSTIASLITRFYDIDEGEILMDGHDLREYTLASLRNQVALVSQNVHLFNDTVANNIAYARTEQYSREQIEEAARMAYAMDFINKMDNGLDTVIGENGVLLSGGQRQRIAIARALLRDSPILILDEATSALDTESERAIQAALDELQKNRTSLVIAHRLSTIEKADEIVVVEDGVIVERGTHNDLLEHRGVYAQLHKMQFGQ
Kind of assay: cell-based or functional assay.

The target of assay [8] is T6, Pseudomonas aeruginosa MsbA (Pseudomonas aeruginosa), Q9HUG8.
T6 chain: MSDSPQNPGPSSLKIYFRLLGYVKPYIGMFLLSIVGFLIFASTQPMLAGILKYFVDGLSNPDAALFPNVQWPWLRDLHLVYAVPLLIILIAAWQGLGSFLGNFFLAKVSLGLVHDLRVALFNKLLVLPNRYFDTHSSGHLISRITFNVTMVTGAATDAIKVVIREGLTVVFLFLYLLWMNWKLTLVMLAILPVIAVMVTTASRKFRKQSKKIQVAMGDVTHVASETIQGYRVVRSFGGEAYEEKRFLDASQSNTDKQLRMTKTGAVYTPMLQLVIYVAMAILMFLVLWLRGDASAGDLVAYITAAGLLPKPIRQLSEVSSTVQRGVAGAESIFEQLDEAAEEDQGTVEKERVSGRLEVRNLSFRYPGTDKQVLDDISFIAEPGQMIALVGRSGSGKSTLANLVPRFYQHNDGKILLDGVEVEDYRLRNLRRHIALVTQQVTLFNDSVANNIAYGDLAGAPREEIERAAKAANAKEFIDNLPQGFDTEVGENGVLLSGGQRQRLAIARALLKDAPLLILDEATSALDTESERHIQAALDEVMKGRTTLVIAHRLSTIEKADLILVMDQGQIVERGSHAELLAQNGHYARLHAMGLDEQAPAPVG
Description: cell-based or functional assay.

Assay [9] deals with Enterobacter cloacae MsbA (Enterobacter cloacae). Description: cell-based or functional assay.
Assay [10] deals with Klebsiella pneumoniae MsbA (Klebsiella pneumoniae). Description: cell-based or functional assay.
Assay [11] has as its target T7, E. coli MsbA-chimera5 (chimera of Escherichia coli MsbA and Magnetospira strain-QH-2 MsbA), P60752.
T7 chain: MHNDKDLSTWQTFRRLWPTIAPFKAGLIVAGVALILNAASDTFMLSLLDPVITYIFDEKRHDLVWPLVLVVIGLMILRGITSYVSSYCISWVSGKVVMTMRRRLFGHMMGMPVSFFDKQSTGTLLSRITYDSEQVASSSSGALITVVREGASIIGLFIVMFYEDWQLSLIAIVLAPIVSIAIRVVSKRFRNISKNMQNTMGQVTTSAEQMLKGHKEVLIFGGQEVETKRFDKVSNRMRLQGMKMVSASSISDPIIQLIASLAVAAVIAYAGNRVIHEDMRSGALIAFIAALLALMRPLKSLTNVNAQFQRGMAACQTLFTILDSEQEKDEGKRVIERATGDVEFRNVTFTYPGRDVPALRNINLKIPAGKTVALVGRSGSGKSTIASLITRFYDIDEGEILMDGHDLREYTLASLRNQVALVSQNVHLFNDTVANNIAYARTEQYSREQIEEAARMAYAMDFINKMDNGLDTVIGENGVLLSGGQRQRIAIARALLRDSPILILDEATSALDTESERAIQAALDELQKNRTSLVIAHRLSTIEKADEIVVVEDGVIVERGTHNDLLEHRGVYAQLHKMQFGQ
Kind of assay: cell-based or functional assay.

Where [12] appears, read: IC50 for inhibition of ATPase activity of MsbA, experiment of FIG. 3F / b233.

Bridge positions count the residues as written; N and C are the ends. Square brackets hold non-standard residues; d marks the D form. Peptide text beside a SMILES is read from it. Bip = N[C@@H](Cc1ccc(-c2ccccc2)cc1)C(=O)O; NMeF = CN[C@@H](Cc1ccccc1)C(=O)O; NMeA = CN[C@@H](C)C(=O)O; Sar = CNCC(=O)O

`CC1CCN(CC(=O)Nc2ccc(C#N)nc2C(=O)c2ncccc2F)CC1` [Compound G758, N-(6-cyano-2-(3-fluoropicolinoyl)pyridin-3-yl)-2-(4-methylpiperidin-1-yl)acetamide, reference compound]: the “sensitivity of MsbA-chim5 to previously identified small-molecule inhibitors” value in [1] is listed as “displayed sensitivity”.

For the molecule `CC(C)C[C@@H]1NC(=O)[C@H](Cc2c[nH]c3ccccc23)NC(=O)[C@H](Cc2c[nH]c3ccccc23)NC(=O)[C@H](Cc2ccccc2)NC(=O)CSC[C@@H](C(N)=O)NC(=O)[C@H](C(C)C)NC(=O)[C@H](Cc2ccccc2)N(C)C(=O)[C@H](Cc2c[nH]c3ccccc23)NC(=O)[C@H](Cc2c[nH]c3ccccc23)NC(=O)[C@H](CC(=O)O)NC(=O)CN(C)C(=O)[C@H](CC(=O)O)NC(=O)[C@H](CO)NC(=O)[C@H](Cc2c[nH]c3ccccc23)NC1=O` [Compound G1119] ({CH2CO}-FWWLWSD[Sar]DWW[NMeF]VC-NH2; thioether N-14), 5 nM corresponded to half-maximal inhibition in assay [2] (setting [12]) (IC50).

Consider `CC(C)C[C@@H]1NC(=O)CNC(=O)[C@H](Cc2c[nH]c3ccccc23)NC(=O)[C@H](C)N(C)C(=O)[C@H](Cc2c[nH]c3ccccc23)NC(=O)[C@H](CC(C)C)NC(=O)[C@H](Cc2ccc(O)cc2)NC(=O)[C@H](CCCNC(=N)N)NC(=O)[C@H](Cc2ccccc2)NC(=O)CSC[C@@H](C(N)=O)NC(=O)[C@H](CC(N)=O)NC(=O)[C@H](CC(=O)O)NC(=O)[C@H](Cc2c[nH]c3ccccc23)NC(=O)[C@H](C(C)C)NC1=O` [Compound G1122] ({CH2CO}-FRYLW[NMeA]WGLVWDNC-NH2; thioether N-14), for which the 50% inhibitory concentration (IC50) (in general, the midpoint of a concentration-inhibition curve) in [2] (setting [12]) worked out at 2 nM.

For `CC(C)[C@@H]1NC(=O)[C@H](CCCNC(=N)N)NC(=O)[C@H](Cc2ccccc2)N(C)C(=O)[C@H](Cc2ccc(-c3ccccc3)cc2)NC(=O)[C@H](Cc2ccc(O)cc2)NC(=O)[C@H](C(C)C)NC(=O)[C@H](Cc2ccccc2)NC(=O)CSC[C@@H](C(N)=O)NC1=O` [Compound G1365, ClAc-FVYBphMeFRVCNH2] ({CH2CO}-FVY[Bip][NMeF]RVC-NH2; thioether N-8), the IC50 was above 5000 nM in assay [3]; 1300 nM in assay [2] (ATPase inhibitory activity on WT EcMsbA, IC50, purified WT EcMsbA, FIG. 3D); 300 nM in assay [2] (biochemical IC50, FIGS. 3G-L, 8-10 mer macrocycle series experiment); around 20000 nM in [4] (over the course of 6 hours, read-out: IC50, inhibition of growth of WT E. coli cells with an intact outer membrane); 7600 nM in [6]. Also, the EC50 (in general, the concentration needed to bring the measured effect to its halfway point) in assay [4] (dose response on imp MsbAWT, imp MsbA High and UPEC WT, b248: EC50 for wild-type E. coli cells, read-out: EC50, FIGS. 3G-L) was 20000 nM. Further, the “imp Strain MICs: imp, E.coli MsbA” value in assay [5] worked out at 12.5 µM.

With FWWLWDDVSWWFVC (modifications not checked) [G1118], in assay [7], the IC50, ATPase activity of purified EcMsbA was found to be 110 nM; the IC50 for inhibition of ATPase activity of MsbA is 5 nM; the minimum inhibitory concentration (MIC), E. coli cells with the lptD(imp4213) allele was determined as 210 µg/mL. In assay [8], this molecule came in with an IC50, ATPase activity of 3100 nM. Besides, the IC50, ATPase activity in [9] is 240 nM. In assay [10], the IC50, ATPase activity turned out to be 120 nM. In assay [11], this molecule showed an IC50, ATPase activity of purified MsbA-chim5 above 5000 nM and a fold lower potency than on EcMsbA (ATPase) above 30 fold.
